# Data from US11712055B2, “Stevia composition” (PURECIRCLE SDN. BHD., priority 2011, dated 2023).
# Experiments:
# [1] = cited from earlier work; for times sweeter than sucrose: Tanaka 1987, Phillips 1989; for times sweeter than sucrose (sensory evaluations): Crammer and Ikan 1986
# [2] = Chang and Cook 1983; cited from earlier work
# [3] = Kinghorn 2002; cited from earlier work
# [4] = Water solubility; type: physicochemical; details: in water at 25° C.
compound,measurement,setting,value
C=C1C[C@@]23CC[C@H]4[C@@](C)(CCC[C@@]4(C)C(=O)O[C@@H]4O[C@H](CO)[C@@H](O)[C@H](O)[C@H]4O)[C@@H]2CC[C@]1(O[C@@H]1O[C@H](CO)[C@@H](O)[C@H](O)[C@H]1O[C@@H]1O[C@@H](C)[C@H](O)[C@@H](O)[C@H]1O)C3 [Dulcoside A],times sweeter than sucrose,[1],30 times
"C=C1C[C@@]23CC[C@H]4[C@@](C)(CCC[C@@]4(C)C(=O)O[C@@H]4O[C@H](CO)[C@@H](O)[C@H](O)[C@H]4O)[C@@H]2CC[C@]1(O[C@@H]1O[C@H](CO)[C@@H](O)[C@H](O[C@@H]2O[C@H](CO)[C@@H](O)[C@H](O)[C@H]2O)[C@H]1O[C@@H]1O[C@H](CO)[C@@H](O)[C@H](O)[C@H]1O)C3 [Reb A, rebaudioside A]",stability in carbonated beverages,[2],heat and pH stability
same,times sweeter than sucrose (sensory evaluations),[1],350-450 times
C=C1C[C@@]23CC[C@H]4[C@@](C)(CCC[C@@]4(C)C(=O)O[C@@H]4O[C@H](CO)[C@@H](O)[C@H](O)[C@H]4O)[C@@H]2CC[C@]1(O[C@@H]1O[C@H](CO)[C@@H](O)[C@H](O)[C@H]1O[C@@H]1O[C@H](CO)[C@@H](O)[C@H](O)[C@H]1O)C3 [stevioside],stability in carbonated beverages,[2],heat and pH stability
same,times sweeter than sucrose,[1],110-270 times
Rebaudioside B [reb B],water solubility (reported),[3],about 0.1%
same,times sweeter than sucrose (sensory evaluations),[1],300-350 times
rebaudioside C,times sweeter than sucrose,[1],40-60 times
rebaudioside B [Example 3],water solubility of obtained material,[4],about 0.1 % (w/v)
"C=C1CC23CCC4C(C)(C(=O)[O-])CCCC4(C)C2CCC1(OC1OC(CO)C(O)C(OC2OC(CO)C(O)C(O)C2O)C1OC1OC(CO)C(O)C(O)C1O)C3.[K+] (stereo not shown) [Example 5, reb B potassium salt]",water solubility of obtained material,[4],about 0.1 % (w/v)
